Experimental data taken from ChEMBL document CHEMBL5247655, “Simplified Derivatives of Tetrandrine as Potent and Specific P-gp Inhibitors to Reverse Multidrug Resistance in Cancer Chemotherapy” (J Med Chem, 2023).
The source made the active and inactive calls. No cut-off for these calls is given here.

How the values were obtained:
ECa-109 cell line [1] = assay: Synergistic antitumor activity against in vincristine resistant p-gp overexpressing human Eca-109 cells xenografted in nude mouse assessed as inhibition of tumor growth rate at 30 mg/kg, IG administered every two days for 21 days in presence of vincristine relative to control; type: functional; set-up: scale not given: the % may be the effect or the level left; settings: time 21 day
[2] = AUC (0 to t) in Sprague-Dawley rat at 3 mg/kg, iv measured upto 24 hrs by UPLC/MS/MS analysis; type: ADME, organism-based; set-up: time < 24 hrs, dose 3 mg/kg, route iv; settings: in vivo
[3] = Half life in Sprague-Dawley rat at 3 mg/kg, iv measured upto 24 hrs by UPLC/MS/MS analysis; type: ADME, organism-based; settings: in vivo
[4] = Terminal elimination half life in Sprague-Dawley rat at 30 mg/kg, po measured upto 24 hrs by UPLC/MS/MS analysis; type: ADME, organism-based; settings: in vivo, read-out: LambdaZ (converted)
[5] = Cmax in Sprague-Dawley rat at 3 mg/kg, iv measured upto 24 hrs by UPLC/MS/MS analysis; type: ADME, organism-based; set-up: time < 24 hrs, dose 3 mg/kg, route iv; settings: in vivo
ECa-109 cell line [6] = assay: Reversal of VCR -resistance in human Eca-109 cells assessed as cell viability at 5 uM incubated for 48 hrs by CCK-8 method (reference value: 6830.0+/-537.0 nM); type: functional, cell-based; settings: ECa-109, 48 h
ECa-109 cell line [7] = assay: Induction of apoptosis in vincristine resistant human Eca-109 cells assessed as viable cells at 5 uM incubated for 24 hrs in presence of vincristine by AnnexinV-FITC/PI staining based flow cytometric analysis (reference value: 89.2%); type: functional; settings: read-out: Activity
[8] = molecular target: T1, ATP-dependent translocase ABCB1 (Homo sapiens, UniProt P08183); assay: Inhibition of P-gp efflux in vincristine resistant human Eca-109 cells assessed as effect on accumulation of rhodamine123; type: cell-based
ECa-109 cell line [9] = assay: Induction of apoptosis in vincristine resistant human Eca-109 cells assessed as early apoptotic cells at 5 uM incubated for 24 hrs in presence of vincristine by AnnexinV-FITC/PI staining based flow cytometric analysis (reference value: 4.43%); type: functional
ECa-109 cell line [10] = assay: Induction of apoptosis in vincristine resistant human Eca-109 cells assessed as necrotic cells at 1 uM incubated for 24 hrs in presence of vincristine by AnnexinV-FITC/PI staining based flow cytometric analysis (reference value: 0.35%); type: functional
[11] = Apparent volume of distribution during terminal phase in Sprague-Dawley rat at 3 mg/kg, iv measured upto 24 hrs by UPLC/MS/MS analysis; type: ADME, organism-based; settings: in vivo
[12] = Apparent oral clearance in Sprague-Dawley rat at 30 mg/kg, po measured upto 24 hrs by UPLC/MS/MS analysis; type: ADME, organism-based; settings: in vivo
ECa-109 cell line [13] = assay: Reversal of vincristine-resistance in human Eca-109 cells assessed as fold reversal by measuring cell viability at 2.5 uM incubated for 48 hrs by CCK-8 method relative to vincristine alone; type: functional
ECa-109 cell line [14] = assay: Induction of apoptosis in vincristine resistant human Eca-109 cells assessed as early apoptotic cells at 5 uM incubated for 24 hrs by AnnexinV-FITC/PI staining based flow cytometric analysis (reference value: 2.30%); type: functional
ECa-109 cell line [15] = assay: Cytotoxicity against human Eca-109 cells incubated for 48 hrs by CCK-8 method; type: functional, cell-based; settings: ECa-109, 48 h
[16] = Oral bioavailability in Sprague-Dawley rat at 30 mg/kg measured upto 24 hrs by UPLC/MS/MS analysis; type: ADME, organism-based; settings: in vivo
[17] = Cytotoxicity against human GES1 cells incubated for 48 hrs by CCK-8 method; type: toxicity, cell-based
ECa-109 cell line [18] = assay: Induction of apoptosis in vincristine resistant human Eca-109 cells assessed as necrotic cells at 5 uM incubated for 24 hrs in presence of vincristine by AnnexinV-FITC/PI staining based flow cytometric analysis (reference value: 0.35%); type: functional
ECa-109 cell line [19] = assay: Induction of apoptosis in vincristine resistant human Eca-109 cells assessed as necrotic cells at 2.5 uM incubated for 24 hrs by AnnexinV-FITC/PI staining based flow cytometric analysis (reference value: 0.25%); type: functional
ECa-109 cell line [20] = assay: Induction of apoptosis in vincristine resistant human Eca-109 cells assessed as viable cells at 1 uM incubated for 24 hrs by AnnexinV-FITC/PI staining based flow cytometric analysis (reference value: 90.3%); type: functional; settings: read-out: Activity
[21] = Cytotoxicity against human HK-2 cells incubated for 48 hrs by CCK-8 method; type: toxicity, cell-based
[22] = MRT (0 to infinity) in Sprague-Dawley rat at 3 mg/kg, iv measured upto 24 hrs by UPLC/MS/MS analysis; type: ADME, organism-based; settings: in vivo
[23] = Terminal elimination half life in Sprague-Dawley rat at 3 mg/kg, iv measured upto 24 hrs by UPLC/MS/MS analysis; type: ADME, organism-based; settings: in vivo, read-out: LambdaZ (converted)
ECa-109 = assay: Downregulation of P-gp expression in vincristine resistant human Eca-109 cells at 2.5 to 10 uM incubated for 24 hrs by Western blot analysis; type: functional, cell-based; settings: dose 2.5-10 µM
[24] = MRT (0 to infinity) in Sprague-Dawley rat at 30 mg/kg, po measured upto 24 hrs by UPLC/MS/MS analysis; type: ADME, organism-based; settings: in vivo
ECa-109 cell line [25] = assay: Induction of apoptosis in vincristine resistant human Eca-109 cells assessed as viable cells at 5 uM incubated for 24 hrs by AnnexinV-FITC/PI staining based flow cytometric analysis (reference value: 90.3%); type: functional; settings: read-out: Activity
[26] = AUMC (0 to infinity) in Sprague-Dawley rat at 30 mg/kg, po measured upto 24 hrs by UPLC/MS/MS analysis; type: ADME, organism-based; settings: in vivo
ECa-109 cell line [27] = assay: Synergistic antitumor activity against in vincristine resistant p-gp overexpressing human Eca-109 cells xenografted in nude mouse assessed as inhibition of tumor proliferation at 30 mg/kg, IG administered every two days for 21 days in presence of vincristine; type: functional, organism-based; settings: time 21.0 day
ECa-109 cell line [28] = assay: Induction of apoptosis in vincristine resistant human Eca-109 cells assessed as late apoptotic cells at 2.5 uM incubated for 24 hrs by AnnexinV-FITC/PI staining based flow cytometric analysis (reference value: 7.19%); type: functional
ECa-109 cell line [29] = assay: Induction of apoptosis in vincristine resistant human Eca-109 cells assessed as viable cells at 2.5 uM incubated for 24 hrs in presence of vincristine by AnnexinV-FITC/PI staining based flow cytometric analysis (reference value: 89.2%); type: functional; settings: read-out: Activity
ECa-109 cell line [30] = assay: Reversal of vincristine-resistance in human Eca-109 cells assessed as fold reversal by measuring cell viability at 1 uM incubated for 48 hrs by CCK-8 method relative to vincristine alone; type: functional
ECa-109 cell line [31] = assay: Synergistic antitumor activity against in vincristine resistant p-gp overexpressing human Eca-109 cells xenografted in nude mouse assessed as increase in apoptosis at 30 mg/kg, IG administered every two days for 21 days in presence of vincristine by TUNEL analysis; type: functional, organism-based; settings: time 21.0 day
[32] = molecular target: T1, ATP-dependent translocase ABCB1; assay: Inhibition of P-gp efflux in vincristine resistant human Eca-109 cells assessed as increase in colocalization of dox with nucleus at 1 to 5 uM incubated for 3 hrs by DAPI staining based laser-scanning confocal microscopy analysis; type: cell-based; settings: eca-109, 3 h, dose 1-5 µM
ECa-109 cell line [33] = assay: Induction of apoptosis in vincristine resistant human Eca-109 cells assessed as late apoptotic cells at 1 uM incubated for 24 hrs in presence of vincristine by AnnexinV-FITC/PI staining based flow cytometric analysis (reference value: 6.01%); type: functional
[34] = Tmax in Sprague-Dawley rat at 3 mg/kg, iv measured upto 24 hrs by UPLC/MS/MS analysis; type: ADME, organism-based; settings: in vivo

T1 sequence (P08183 whole entry): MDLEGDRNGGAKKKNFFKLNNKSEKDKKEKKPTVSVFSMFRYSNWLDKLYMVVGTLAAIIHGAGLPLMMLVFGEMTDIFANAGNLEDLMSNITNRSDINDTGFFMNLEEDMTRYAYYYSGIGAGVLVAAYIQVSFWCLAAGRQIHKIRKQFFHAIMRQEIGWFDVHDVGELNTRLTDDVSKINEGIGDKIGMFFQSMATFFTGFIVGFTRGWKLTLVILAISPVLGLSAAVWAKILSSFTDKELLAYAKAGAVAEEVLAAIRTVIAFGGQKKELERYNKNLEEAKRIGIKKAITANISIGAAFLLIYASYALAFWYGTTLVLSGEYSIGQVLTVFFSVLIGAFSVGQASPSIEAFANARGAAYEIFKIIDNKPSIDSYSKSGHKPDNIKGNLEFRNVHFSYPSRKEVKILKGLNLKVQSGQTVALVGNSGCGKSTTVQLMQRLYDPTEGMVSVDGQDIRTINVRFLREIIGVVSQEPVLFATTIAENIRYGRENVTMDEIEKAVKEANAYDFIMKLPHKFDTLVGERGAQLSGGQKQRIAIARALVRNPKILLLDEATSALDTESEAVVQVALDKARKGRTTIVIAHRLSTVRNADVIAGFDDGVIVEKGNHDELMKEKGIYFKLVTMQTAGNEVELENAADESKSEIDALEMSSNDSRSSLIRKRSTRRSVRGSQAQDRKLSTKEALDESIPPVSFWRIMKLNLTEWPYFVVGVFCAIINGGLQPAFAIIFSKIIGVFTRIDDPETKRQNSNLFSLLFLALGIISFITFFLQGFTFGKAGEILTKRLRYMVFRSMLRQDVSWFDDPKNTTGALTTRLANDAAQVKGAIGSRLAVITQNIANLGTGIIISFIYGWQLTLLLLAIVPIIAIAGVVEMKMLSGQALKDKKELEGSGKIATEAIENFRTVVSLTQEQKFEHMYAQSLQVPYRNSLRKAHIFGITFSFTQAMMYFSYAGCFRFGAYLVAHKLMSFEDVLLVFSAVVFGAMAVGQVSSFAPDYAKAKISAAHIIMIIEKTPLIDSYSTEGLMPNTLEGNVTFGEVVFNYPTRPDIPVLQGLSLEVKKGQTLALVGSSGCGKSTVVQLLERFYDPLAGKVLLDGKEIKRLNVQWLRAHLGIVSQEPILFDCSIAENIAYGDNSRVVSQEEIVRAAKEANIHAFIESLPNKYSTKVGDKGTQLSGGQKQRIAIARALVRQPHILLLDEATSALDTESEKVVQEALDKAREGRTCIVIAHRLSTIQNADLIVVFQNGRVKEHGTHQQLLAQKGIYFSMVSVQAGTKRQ

COc1cc2c(cc1OC)C(Cc1ccc(OC)c(OCc3ccccc3)c1)N(C)CC2 (stereo not given)
Activity (ECa-109 cell line [1]): 79.13%
AUC(0-t) at 24 h [2]: 2690 ng·h/mL
half-life [3]: 8.43 h
k el at 24 h [4]: 3.33e-05 s⁻¹
Cmax [5]: 1570 ng/mL
IC50 (ECa-109 cell line [6]): 0.0099 µM
viability at 5 µM (ECa-109 cell line [7]): 64.5%
inhibition (INH) [8]: Active
Activity (ECa-109 cell line [9]): 24.9%
Activity (ECa-109 cell line [10]): 0.37%
Vz/F [11]: 12.84 L/kg
CL/F [12]: 186 mL/min/kg
fold change (FC) (ECa-109 cell line [13]): 103.4
Activity (ECa-109 cell line [14]): 2.51%
IC50 (ECa-109 cell line [15]): > 100 µM
bioavailability [16]: 7.65%
IC50 at 48 h [17]: > 50 µM
Activity (ECa-109 cell line [18]): 0.62%
Activity (ECa-109 cell line [19]): 0.11%
viability at 1 µM (ECa-109 cell line [20]): 91.6%
IC50 at 48 h [21]: > 50 µM
MRT inf [22]: 2.68 h
k el at 24 h [23]: 4.17e-05 s⁻¹
Activity (ECa-109): inactive
MRT inf [24]: 4.89 h
viability at 5 µM (ECa-109 cell line [25]): 90.8%
AUMC [26]: 131110.55 ng/mL.hr^2
Activity (ECa-109 cell line [27]): Active
Activity (ECa-109 cell line [28]): 5.69%
viability at 2.5 µM (ECa-109 cell line [29]): 70.5%
fold change (FC) (ECa-109 cell line [30]): 3.7
Activity (ECa-109 cell line [31]): Active
inhibition (INH) [32]: Active
Activity (ECa-109 cell line [33]): 8.64%
Tmax [34]: 0.17 h
